Test results: US20250164502A1, “Mutant Human Nax Proteins and Screening Methods” (Genentech, Inc., priority 2021, published 2025)
Read-outs that look alike come from different tables or passages of the source.

How the values were obtained:
[1] = target: T1, human NaX-QTT (Homo sapiens, UniProt Q01118, F724Q/I1189T/I1492T); assay: Whole-cell patch clamp of HEK293T cells expressing NaX-QTT, effect of extracellular Ca^2+; type: cell-based
T1 construct: expressed in transfected cells; host or cells: Xenopus laevis oocytes injected with in vitro transcribed capped RNA
Description: (§1) FIGS. 5A-C show pharmacology of the human NaX-QTT channel. FIG. 5A, left and middle panels, show representative I-V currents from HEK293 cells expressing human NaX-QTT with indicated extracellular monovalent cations with or without indicated amounts of CaCl2 in the extracellular solution. Voltage ramp from −80 to +80 mV was applied.
HEK293T cells expressing NaX- or NaX-QTT-eGFP-2×FLAG were seeded on glass cover slips an hour before whole-cell patch-clamping experiments. For a more physiological condition (FIGS. 4D and 7B), the extracellular solution contained 150 mM NaCl, 5 mM KCl, 0.5 mM CaCl2, 1.2 mM MgCl2, 10 mM HEPES, and 13 mM D-(+)-glucose (pH 7.4) with NaOH, ˜320 mOsm/L, and the intracellular solution contained 140 mM CsCl, 10 mM CsF, 5 mM EGTA, 10 mM HEPES, and 2 mM Na2ATP (pH 7.2) with CsOH, ˜304 mOsm/L. To determine if NaX-QTT was cation-permeable, we first substituted all extracellular cations with NMDG^+ (FIG. 4E). Extracellular solution contained 150 mM NMDG and 10 mM HEPES (D-(+)-glucose was added accordingly to achieve osmolarity ˜325 mOsm/L and pH was adjusted to 7.4 with hydrochloric acid). To determine if NaX-QTT was anion-permeable, we substituted all Cl^− ions in both intra- and extracellular solutions with the large anion methanesulfonate (MS^−) (FIG. 15C). The extracellular solution contained 150 mM NaMS and 10 mM HEPES (D-(+)-glucose was added accordingly to achieve osmolarity ˜325 mOsm/L, and pH was adjusted to 7.4 with NaOH). […]
(§2) For data analysis, raw current traces were typically filtered using 8-pole Bessel low-pass filter at 500-800 Hz. […] For ion-selectivity experiments performed with Na^+ intracellular solution (FIGS. 4E and 5A), liquid junction potential (LJP) was measured with reference to the Na^+ intracellular solution and corrected after recording. Relative ion permeabilities (PNa/PX) were calculated using the equation PX/PNa=[Na^+]IC exp(ErevF/RT)/[X^+]EC (X=Na, K, Li or Cs), where F is Faraday's constant, R is the gas constant, […], and Erevs were measured from the −80- to +80-m V ramp (corrected for LJP).

[2] = system: Xenopus laevis oocytes; assay: Current amplitude of Xenopus laevis oocytes expressing the constructs (function of construct); type: cell-based; settings: voltage-step protocols
Description: (*p<0.05; **p<0.01; ****p<0.0001; one-way ANOVA, Dunnett's test against NaX.)
Oocytes were prepared as previously described^68. Healthy-looking stage V-VI oocytes were injected with 2.5-40 ng of RNA (in 5-41 nL) using a Nanoliter 2010 injector (World Precision Instruments). When excluding one or more construct, an equivalent volume of nuclease-free water was added to maintain a constant RNA concentration across different construct combinations. Injected oocytes were kept at 18° C., 140 rpm, in ND96 supplemented with 50 μg/mL gentamicin and 50 μg/mL tetracycline (in mM: 96 NaCl, 2 KCl, 1 MgCl2, 1.8 CaCl2), 2.5 sodium pyruvate, 0.5 theophylline, 5 HEPES; pH 7.4 with NaOH) for two to five days. Two-electrode voltage-clamp measurements were performed at room temperature using a Warner OC-725C Oocyte Clamp amplifier (Warner Instrument Corp, USA) and under constant perfusion with ND96 solution (in mM: 96 NaCl, 2 KCl, 1 MgCl2, 1.8 CaCl2, 5 HEPES; pH 7.4 with NaOH). For ion selectivity experiments, external solutions contained 115 mM of test cations as chloride salts, 1.2 mM CaCl2, 2 mM MgCl2, 5 mM HEPES (pH 7.4 with the corresponding hydroxide). […] The voltage dependence of ion current was determined using a protocol consisting of steps from a holding potential of 0 mV to voltages ranging from +80 to −100 mV for 1 s in 20 mV increment. […]

[3] = system: HEK293T cells; assay: Whole-cell patch clamp of HEK293T cells expressing NaX-QTT, reversal potential and ion selectivity; type: cell-based, human
Description: HEK293T cells expressing NaX- or NaX-QTT-eGFP-2×FLAG were seeded on glass cover slips an hour before whole-cell patch-clamping experiments. For a more physiological condition (FIGS. 4D and 7B), the extracellular solution contained 150 mM NaCl, 5 mM KCl, 0.5 mM CaCl2, 1.2 mM MgCl2, 10 mM HEPES, and 13 mM D-(+)-glucose (pH 7.4) with NaOH, ˜320 mOsm/L, and the intracellular solution contained 140 mM CsCl, 10 mM CsF, 5 mM EGTA, 10 mM HEPES, and 2 mM Na2ATP (pH 7.2) with CsOH, ˜304 mOsm/L. To determine if NaX-QTT was cation-permeable, we first substituted all extracellular cations with NMDG^+ (FIG. 4E). Extracellular solution contained 150 mM NMDG and 10 mM HEPES (D-(+)-glucose was added accordingly to achieve osmolarity ˜325 mOsm/L and pH was adjusted to 7.4 with hydrochloric acid). To determine if NaX-QTT was anion-permeable, we substituted all Cl^− ions in both intra- and extracellular solutions with the large anion methanesulfonate (MS^−) (FIG. 15C). The extracellular solution contained 150 mM NaMS and 10 mM HEPES (D-(+)-glucose was added accordingly to achieve osmolarity ˜325 mOsm/L, and pH was adjusted to 7.4 with NaOH). The intracellular solution contained 136 mM NaMS, 10 mM NaF, 5 mM EGTA, 10 mM HEPES, and 2 mM Na2ATP (pH 7.2 with NaOH, ˜309 mOsm/L). The extracellular NMDG solution contained 150 NMDG and 10 mM HEPES (D-(+)-glucose was added accordingly to achieve osmolarity ˜325 mOsm/L, and pH was adjusted to 7.4 with methanesulfonic acid).
For ion-selectivity experiments (FIGS. 4E and 5A) (i) involving monovalent cations, the extracellular solution contained 150 mM XCl, 10 mM HEPES, and D-(+)-glucose was added accordingly to achieve osmolarity ˜325 mOsm/L, and the pH was adjusted to 7.4 with XOH, where X indicates the cation of interest (Na^+, K^+, Li+ or Cs+); (ii) involving Ca^2+, the extracellular solution contained 110 mM CaCl2, 10 mM HEPES, and D-(+)-glucose was added accordingly to achieve osmolarity ˜325 mOsm/L, and the pH was adjusted to 7.4 with Ca(OH)2; (iii) the intracellular solution contained 136 mM NaCl, 10 mM NaF, 5 mM EGTA, 10 mM HEPES, and 2 mM Na2ATP (pH 7.2) with NaOH, ˜309 mOsm/L.
as §2

[4] = target: T1, human NaX-QTT; assay: Two-electrode voltage-clamp of Xenopus laevis oocytes expressing human NaX-QTT with blockers or multivalent cations; type: cell-based
Description: as §1
Oocytes were prepared as previously described^68. Healthy-looking stage V-VI oocytes were injected with 2.5-40 ng of RNA (in 5-41 nL) using a Nanoliter 2010 injector (World Precision Instruments). When excluding one or more construct, an equivalent volume of nuclease-free water was added to maintain a constant RNA concentration across different construct combinations. Injected oocytes were kept at 18° C., 140 rpm, in ND96 supplemented with 50 μg/mL gentamicin and 50 μg/mL tetracycline (in mM: 96 NaCl, 2 KCl, 1 MgCl2, 1.8 CaCl2), 2.5 sodium pyruvate, 0.5 theophylline, 5 HEPES; pH 7.4 with NaOH) for two to five days. Two-electrode voltage-clamp measurements were performed at room temperature using a Warner OC-725C Oocyte Clamp amplifier (Warner Instrument Corp, USA) and under constant perfusion with ND96 solution (in mM: 96 NaCl, 2 KCl, 1 MgCl2, 1.8 CaCl2, 5 HEPES; pH 7.4 with NaOH). For ion selectivity experiments, external solutions contained 115 mM of test cations as chloride salts, 1.2 mM CaCl2, 2 mM MgCl2, 5 mM HEPES (pH 7.4 with the corresponding hydroxide). Data acquisition was performed using a Digidata 1550 digitizer (Molecular devices; sampled at 10 kHz) and pCLAMP 10 software (Molecular Devices). Microelectrodes from borosilicate glass capillaries (Harvard Apparatus) were prepared to have resistances around 0.2-1.0 MQ2 using a P-1000 Flaming/Brown Micropipette Puller System (Sutter Instrument) and backfilled with 3 M KCl. Aconitine and veratridine (Alomone Labs) were dissolved in DMSO to make 50 mM stocks, and were further diluted to 300 and 100 μM in ND96 for electrophysiological experiments. Other NaV activators (Alomone Labs; FIGS. 8A-D) were dissolved in water to make stock solutions. The voltage dependence of ion current was determined using a protocol consisting of steps from a holding potential of 0 mV to voltages ranging from +80 to −100 mV for 1 s in 20 mV increment.

[5] = system: Xenopus laevis oocytes; assay: Voltage dependence of activation and steady-state inactivation of mutant NaV channels; type: cell-based; settings: NaV1.7 mutant
[6] = target: T2, human NaX (Homo sapiens, UniProt Q01118); assay: Two-electrode voltage-clamp of oocytes expressing human NaX with classical NaV channel activators; type: cell-based; settings: different voltage-step protocols in oocytes; wild-type human NaX
T2 construct: expressed in transfected cells; host or cells: Xenopus laevis oocytes injected with in vitro transcribed capped RNA
Description: FIGS. 8A-D show functional evaluation of human NaX in Xenopus laevis oocytes. FIGS. 8A, left panel, and 8B, left panel, show representative currents from Xenopus laevis oocytes expressing human NaX with the indicated pharmacological modulator present in the extracellular solution. […] FIGS. 8C, left panel, and 8D, left panel, show representative currents from oocytes expressing human NaX with the indicated proteins co-expressed. FIG. 8C, right panel, show I-V plots with steps between +80 and −100 mV, in 20 mV increments, from a HP of 0 mV.
Oocytes were prepared as previously described^68. Healthy-looking stage V-VI oocytes were injected with 2.5-40 ng of RNA (in 5-41 nL) using a Nanoliter 2010 injector (World Precision Instruments). When excluding one or more construct, an equivalent volume of nuclease-free water was added to maintain a constant RNA concentration across different construct combinations. Injected oocytes were kept at 18° C., 140 rpm, in ND96 supplemented with 50 μg/mL gentamicin and 50 μg/mL tetracycline (in mM: 96 NaCl, 2 KCl, 1 MgCl2, 1.8 CaCl2), 2.5 sodium pyruvate, 0.5 theophylline, 5 HEPES; pH 7.4 with NaOH) for two to five days. […] The voltage dependence of ion current was determined using a protocol consisting of steps from a holding potential of 0 mV to voltages ranging from +80 to −100 mV for 1 s in 20 mV increment.

[7] = reported for pathogenic mutation; cited from earlier work

T1 sequence (Q01118 whole entry F724Q/I1189T/I1492T): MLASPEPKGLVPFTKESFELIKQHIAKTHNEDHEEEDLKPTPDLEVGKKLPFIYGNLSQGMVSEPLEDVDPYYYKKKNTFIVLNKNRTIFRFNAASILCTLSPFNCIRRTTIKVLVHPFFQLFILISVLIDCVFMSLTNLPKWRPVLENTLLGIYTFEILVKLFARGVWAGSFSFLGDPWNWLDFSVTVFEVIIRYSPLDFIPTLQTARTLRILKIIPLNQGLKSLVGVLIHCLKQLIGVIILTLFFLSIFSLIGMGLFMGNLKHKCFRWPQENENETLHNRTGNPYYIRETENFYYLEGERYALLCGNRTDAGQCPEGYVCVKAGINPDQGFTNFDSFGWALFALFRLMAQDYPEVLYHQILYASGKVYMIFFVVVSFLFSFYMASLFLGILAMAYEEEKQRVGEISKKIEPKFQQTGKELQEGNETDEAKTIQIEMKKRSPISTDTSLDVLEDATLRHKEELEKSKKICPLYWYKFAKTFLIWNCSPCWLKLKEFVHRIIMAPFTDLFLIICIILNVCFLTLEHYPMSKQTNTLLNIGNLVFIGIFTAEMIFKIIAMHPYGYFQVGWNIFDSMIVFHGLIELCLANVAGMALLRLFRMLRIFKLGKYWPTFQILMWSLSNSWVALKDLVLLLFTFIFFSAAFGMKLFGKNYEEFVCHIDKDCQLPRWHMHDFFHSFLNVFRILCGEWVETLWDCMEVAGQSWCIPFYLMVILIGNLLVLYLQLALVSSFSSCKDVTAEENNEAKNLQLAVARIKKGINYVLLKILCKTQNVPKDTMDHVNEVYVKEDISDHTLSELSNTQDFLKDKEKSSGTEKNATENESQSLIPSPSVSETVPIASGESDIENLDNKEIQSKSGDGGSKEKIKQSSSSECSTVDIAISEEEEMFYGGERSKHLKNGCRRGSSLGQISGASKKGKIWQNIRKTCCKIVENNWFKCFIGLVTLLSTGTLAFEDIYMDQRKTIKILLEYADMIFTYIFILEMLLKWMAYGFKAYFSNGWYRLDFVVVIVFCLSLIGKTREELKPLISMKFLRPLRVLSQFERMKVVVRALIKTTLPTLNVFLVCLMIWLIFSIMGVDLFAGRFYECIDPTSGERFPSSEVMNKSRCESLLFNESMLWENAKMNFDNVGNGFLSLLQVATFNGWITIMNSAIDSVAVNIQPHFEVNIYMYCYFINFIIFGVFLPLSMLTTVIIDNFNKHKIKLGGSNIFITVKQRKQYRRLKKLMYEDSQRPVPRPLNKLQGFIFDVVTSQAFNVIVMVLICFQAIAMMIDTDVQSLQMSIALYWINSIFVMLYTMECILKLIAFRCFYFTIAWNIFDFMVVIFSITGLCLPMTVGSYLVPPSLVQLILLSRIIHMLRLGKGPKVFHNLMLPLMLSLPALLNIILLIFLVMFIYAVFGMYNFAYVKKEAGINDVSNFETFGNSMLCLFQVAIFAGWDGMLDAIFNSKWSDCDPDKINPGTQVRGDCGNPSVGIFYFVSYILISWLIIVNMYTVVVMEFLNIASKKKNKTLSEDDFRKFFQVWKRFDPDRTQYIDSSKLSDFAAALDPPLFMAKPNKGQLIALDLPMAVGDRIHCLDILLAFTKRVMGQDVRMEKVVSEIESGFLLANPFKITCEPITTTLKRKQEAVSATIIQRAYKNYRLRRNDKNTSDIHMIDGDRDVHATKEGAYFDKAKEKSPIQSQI
T2 sequence (Q01118 whole entry): as the sequence (Q01118 whole entry F724Q/I1189T/I1492T) above, with Q724F, T1189I, T1492I counted along it

In the case of [Ca+2] [Ca^2+], the “permeation through NaX-QTT” value ([1]; HEK293T cells, extracellular CaCl2) is reported as “does not permeate”, the “potency of extracellular Ca^2+ block on NaX relative to traditional NaV channels” value ([1]; NaX-QTT versus NaV channels) is reported as roughly 10 fold and the “inhibition of the outward Na^+ current” value ([1]; extracellular Ca^2+ 1 mM, HEK293T cells, NaX-QTT, at 80 mV) is reported as roughly 70%.

For “Construct 24: triple-mutant NaX channel construct (F724Q-I1189T-I1492T) with polar substitutions at three S6-gate lining positions”, the “ionic currents of the construct expressed alone” value [2] was “robust ionic currents”, the reversal potential ([3]; HEK293T cells, all extracellular cations replaced with NMDG) was “below −100 mV” and the reversal potential ([3]; HEK293T cells, physiological extracellular solution) was “+5 mV”. The “discrimination between monovalent cations” value ([3]; extracellular monovalent cations 150 mM) was “does not effectively discriminate” and the reversal potential ([3]; symmetrical NaCl/NaCl, ramp −80 to +80 mV, 150 mM Na^+ intracellular) was roughly 0 mV.

In the case of COc1ccccc1OCC(O)CN1CCN(CC(=O)Nc2c(C)cccc2C)CC1 (stereo not drawn) [ranolazine], the “inhibition of NaX-QTT currents” value ([4]; at concentrations up to 300 μM, oocytes) is reported as “strong inhibitory effects were not observed”.

In the case of CN(C)C(=O)C(CCN1CCC(O)(c2ccc(Cl)cc2)CC1)(c1ccccc1)c1ccccc1 [loperamide], the “inhibition of NaX-QTT currents” value [4] is reported as “equally potent inhibitors”.

With C=C[C@H]1C[N@@]2CC[C@H]1C[C@@H]2[C@@H](O)c1ccnc2ccc(OC)cc12 [quinidine] the “inhibition of NaX-QTT currents” value ([4]; at high μM concentrations, oocytes) was “equally potent inhibitors”.

For “Ser1269Phe: Ser1269Phe substitution in NaV1.7”, the “depolarizing shift of activation” value [5] was roughly 8 mV.

With “Construct 25: L390E/I1189E/I1492E triple-mutant NaX channel construct” the “ionic currents of the construct expressed alone” value [2] was “much lower current amplitudes”.

For CCN1C[C@]2(COC)[C@H](O)C[C@H](OC)[C@@]34[C@@H]5C[C@@]6(O)[C@H](OC(=O)c7ccccc7)[C@@H]5[C@@](OC(C)=O)([C@@H]([C@H](OC)[C@H]23)[C@@H]14)[C@@H](O)[C@@H]6OC [aconitine], the “activation of human NaX-mediated currents” value [6] was “did not invoke any clear human NaX-mediated currents”.

B1: Ser209Phe: pathogenic Ser209Phe mutation in KCNQ1 (protein, UniProt P51787 1-676, looked up, variant S209F)
Potassium voltage-gated …: MAAASSPPRAERKRWGWGRLPGARRGSAGLAKKCPFSLELAEGGPAGGALYAPIAPGAPGPAPPASPAAPAAPPVASDLGPRPPVSLDPRVSIYSTRRPVLARTHVQGRVYNFLERPTGWKCFVYHFAVFLIVLVCLIFSVLSTIEQYAALATGTLFWMEIVLVVFFGTEYVVRLWSAGCRSKYVGLWGRLRFARKPISIIDLIVVVAFMVVLCVGSKGQVFATSAIRGIRFLQILRMLHVDRQGGTWRLLGSVVFIHRQELITTLYIGFLGLIFSSYFVYLAEKDAVNESGRVEFGSYADALWWGVVTVTTIGYGDKVPQTWVGKTIASCFSVFAISFFALPAGILGSGFALKVQQKQRQKHFNRQIPAAASLIQTAWRCYAAENPDSSTWKIYIRKAPRSHTLLSPSPKPKKSVVVKKKKFKLDKDNGVTPGEKMLTVPHITCDPPEERRLDHFSVDGYDSSVRKSPTLLEVSMPHFMRTNSFAEDLDLEGETLLTPITHISQLREHHRATIKVIRRMQYFVAKKKFQQARKPYDVRDVIEQYSQGHLNLMVRIKELQRRLDQSIGKPSLFISVSEKSKDRGSNTIGARLNRVEDKVTQLDQRLALITDMLHQLLSLHGGSTPGSGGPPREGGAHITQPCGSGGSVDPELFLPSNTLPTYEQLTVPRRGPDEGS
For B1, the “hyperpolarization of channel activation” value [7] is listed as −45 mV.
